Measured values as given in patent US8816076B2, “Aryl urea derivatives as N-formyl peptide receptor like-1 (FPRL-1) receptor modulators” (Allergan, Inc., priority 2011, dated 2014).
Where “and” joins values, the source holds several entries; their conditions need not be identical. Equal values may be shown once.

Target: T1, FPRL-1 (Homo sapiens, UniProt P25090)
T1 construct: expressed in transfected cells
T1 sequence (P25090 1-351): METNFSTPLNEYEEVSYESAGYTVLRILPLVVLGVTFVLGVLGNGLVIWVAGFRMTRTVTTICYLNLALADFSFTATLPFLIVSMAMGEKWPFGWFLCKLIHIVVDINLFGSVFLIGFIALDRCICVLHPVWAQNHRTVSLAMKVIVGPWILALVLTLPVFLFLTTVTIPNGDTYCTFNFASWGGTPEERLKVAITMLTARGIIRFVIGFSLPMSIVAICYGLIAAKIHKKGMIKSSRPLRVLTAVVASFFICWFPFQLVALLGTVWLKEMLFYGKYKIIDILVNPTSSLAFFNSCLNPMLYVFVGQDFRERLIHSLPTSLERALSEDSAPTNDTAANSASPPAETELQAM
Assay: Compound-induced calcium activity on FLIPR Tetra in CHO-Ga16 cells stably expressing FPRL1
Type: cell-based
Conditions: for EC50: compounds tested at 0.61 to 10,000 nM; for FPRL-1 Ga16-CHO (Rel. eff.): relative efficacy
Description: CHO-Ga16 cells stably expressing FPRL1 were cultured in (F12, 10% FBS, 1% PSA, 400 μg/ml geneticin and 50 μg/ml hygromycin) and HEK-Gqi5 cells stable expressing FPR1 were cultured in (DMEM high glucose, 10% FBS, 1% PSA, 400 μg/ml geneticin and 50 μg/ml hygromycin). In general, the day before the experiment, 18,000 cells/well were placed in a 384-well clear bottom poly-d-lysine coated plate. The following day the screening compound-induced calcium activity was assayed on the FLIPR^Tetra. The drug plates were prepared in 384-well microplates using the EP3 and the MultiPROBE robotic liquid handling systems. Compounds were tested at concentrations ranging from 0.61 to 10,000 nM. Results are expressed as EC50 (nM) and efficacy values.

| SMILES | EC50 | FPRL-1 Ga16-CHO (Rel. eff.) |
| --- | --- | --- |
| Cc1cc(Br)ccc1NC(=O)N[C@@H](Cc1ccccc1)C(=O)O [Compound 2, (2S)-2-({[(4-Bromo-2-methylphenyl)amino]carbonyl}amino)-3-phenylpropanoic acid] | 1550 nM | (1.0) |
| O=C(Nc1c(F)cc(Br)cc1F)N[C@@H](Cc1ccccc1)C(=O)O [Compound 3, (2S)-2-({[(4-Bromo-2,6-difluorophenyl)amino]carbonyl}amino)-3-phenylpropanoic acid] | 563 nM | (1.0) |
| Cc1cc(Br)cc(C)c1NC(=O)N[C@@H](Cc1ccccc1)C(=O)O [Compound 4, (2S)-2-({[(4-Bromo-2,6-dimethylphenyl)amino]carbonyl}amino)-3-phenylpropanoic acid] | 2400 nM | (0.82) |
| O=C(Nc1ccc(Cl)cc1Cl)N[C@@H](Cc1ccccc1)C(=O)O [Compound 5, (2S)-2-({[(2,4-Dichlorophenyl)amino]carbonyl}amino)-3-phenylpropanoic acid] | 1150 nM | (1.0) |
| O=C(Nc1ccc(Br)c2ccccc12)N[C@@H](Cc1ccccc1)C(=O)O [Compound 10, (2S)-2-({[(4-Bromo-1-naphthyl)amino]carbonyl}amino)-3-phenylpropanoic acid] | 5100 nM | (0.53) |
| CC(C)C[C@H](NC(=O)Nc1ccc(SC(F)(F)F)cc1)C(=O)O [Compound 11, (2S)-4-Methyl-2-{[({4-[(trifluoromethyl)thio]phenyl}amino)carbonyl]amino}pentanoic acid] | 2380 nM | (0.64) |
| O=C(Nc1ccc(Br)cc1)NC(Cc1ccccn1)C(=O)O (stereo not shown) [Compound 16, 2-({[(4-Bromophenyl)amino]carbonyl}amino)-3-pyridin-2-ylpropanoic acid] | 488 nM | (1.0) |
| O=C(Nc1ccc(Br)cc1F)NC(Cc1ccccn1)C(=O)O (stereo not shown) [Compound 17, 2-({[(4-Bromo-2-fluorophenyl)amino]carbonyl}amino)-3-pyridin-2-ylpropanoic acid] | 713 nM | (1.0) |
| O=C(Nc1ccc(Br)cc1F)NC(Cc1c[nH]c2ccccc12)C(=O)O (stereo not shown) [Compound 19, 2-({[(4-Bromo-2-fluorophenyl)amino]carbonyl}amino)-3-(1H-indol-3-yl)propanoic acid] | 120 nM | (1.04) |
| O=C(Nc1ncc2cc(Br)ccc2n1)NC(Cc1ccccc1)C(=O)O (stereo not shown) [Compound 20, 2-({[(6-Bromoquinazolin-2-yl)amino]carbonyl}amino)-3-phenylpropanoic acid] |  | (0.25) |
| CSCCC(NC(=O)Nc1ccc(Br)cc1)C(=O)O (stereo not shown) [Compound 21, 2-({[(4-Bromophenyl)amino]carbonyl}amino)-4-(methylthio)butanoic acid] | 93 nM | (0.94) |
| CSc1ccc(NC(=O)NC(Cc2ccccc2)C(=O)O)cc1 (stereo not shown) [Compound 23, 2-[({[4-(Methylthio)phenyl]amino}carbonyl)amino]-3-phenylpropanoic acid] | 169 nM | (0.76) |
| NC(=O)[C@H](Cc1ccccc1)NC(=O)Nc1ccc(Br)cc1 [Compound 26, (2S)-2-({[(4-Bromophenyl)amino]carbonyl}amino)-3-phenylpropanamide] | 47 nM and 29 nM |  |
| CC(C)C[C@H](NC(=O)Nc1ccc(Br)cc1F)C(N)=O [Compound 27, (2S)-2-({[(4-Bromo-2-fluorophenyl)amino]carbonyl}amino)-4-methylpentanamide] | 120 nM | (1.13) |
| CC[C@H](C)[C@H](NC(=O)Nc1ccc(Br)cc1F)C(N)=O [Compound 29, (2S,3S)-2-({[(4-Bromo-2-fluorophenyl)amino]carbonyl}amino)-3-methylpentanamide] | 241 nM | (0.78) |
| CCC[C@H](NC(=O)Nc1ccc(Br)cc1)C(N)=O [Compound 31, (2S)-2-{[(4-Bromophenyl)carbamoyl]amino} pentanamide] | 109 nM | (0.97) |

The remaining lines, values ahead:

| EC50 | FPRL-1 Ga16-CHO (Rel. eff.) | SMILES |
| --- | --- | --- |
| 51 nM | (0.88) | O=C(Nc1ccc(Br)cc1F)N[C@@H](Cc1ccccc1)C(=O)O [Compound 1, (2S)-2-({[(4-Bromo-2-fluorophenyl)amino]carbonyl}amino)-3-phenylpropanoic acid] |
| 8 nM | (0.89) | CC[C@H](C)[C@H](NC(=O)Nc1ccc(Br)cc1F)C(=O)O [Compound 7, (2S,3S)-2-({[(4-Bromo-2-fluorophenyl)amino]carbonyl}amino)-3-methylpentanoic acid] |
| 88 nM | (1.02) | O=C(Nc1ccc(Br)cc1F)N[C@H](C(=O)O)c1ccccc1 [Compound 8, (2S)-({[(4-Bromo-2-fluorophenyl)amino]carbonyl}amino)(phenyl)acetic acid] |
| 29 nM | (0.94) | CC(C)C[C@H](NC(=O)Nc1ccc(C(F)(F)F)cc1)C(=O)O [Compound 12, (2S)-4-Methyl-2-[({[4-(trifluoromethyl)phenyl]amino}carbonyl)amino]pentanoic acid] |
| 75 nM | (1.00) | CSCC[C@H](NC(=O)Nc1ccc(Br)cc1)C(=O)O [Compound 14, (2S)-2-({[(4-Bromophenyl)amino]carbonyl}amino)-4-(methylthio)butanoic acid] |
| 77 nM | (0.87) | CSc1ccc(NC(=O)N[C@@H](Cc2ccccc2)C(=O)O)cc1 [Compound 15, (2S)-2-[({[4-(Methylthio)phenyl]amino}carbonyl)amino]-3-phenylpropanoic acid] |
| 91 nM | (1.05) | O=C(Nc1ccc(C(F)(F)F)cc1)NC(Cc1ccccc1)C(=O)O (stereo not shown) [Compound 22, 3-Phenyl-2-({[4-(trifluoromethyl)phenyl]carbamoyl}amino)propanoic acid] |
| 16 nM | (0.95) | CC(C)CC(C)(NC(=O)Nc1ccc(Br)cc1)C(=O)O (stereo not shown) [Compound 24, 2-({[(4-Bromophenyl)amino]carbonyl}amino)-2,4-dimethylpentanoic acid] |
| 24 nM | (1.03) | CCC(CC)(NC(=O)Nc1ccc(Br)cc1)C(=O)O [Compound 25, 2-({[(4-Bromophenyl)amino]carbonyl}amino)-2-ethylbutanoic acid] |
| 48 nM | (0.91) | CC(C)C[C@H](NC(=O)Nc1ccc(Br)cc1)C(N)=O [Compound 28, (2S)-2-({[(4-Bromophenyl)amino]carbonyl}amino)-4-methylpentanamide] |
| 56 nM | (1.07) | CCC[C@H](NC(=O)Nc1ccc(Br)cc1F)C(N)=O [Compound 30, (2S)-2-({[(4-Bromo-2-fluorophenyl)amino]carbonyl}amino)pentanamide] |
